How the values were obtained:
[1] = test system: COLO 205; experiment: NCI-60 single-dose screen; type: cell-based; conditions: Homo sapiens, single dose 10 µM, '-' = no inhibition, read-out: % Growth Inhibition
Outline: (§1)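 Single concentration of 10 μM applied to every line of the 60-cell-line NCI panel. Testing performed by NCI DTP.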

[2] = test system: DU-145; experiment: NCI-60 single-dose screen; type: cell-based; conditions: Homo sapiens, single dose 10 µM, '-' = no inhibition, read-out: % Growth Inhibition
Outline: as §1

[3] = test system: HL-60(TB); experiment: NCI-60 single-dose screen; type: cell-based; conditions: Homo sapiens, single dose 10 µM, '-' = no inhibition, read-out: % Growth Inhibition
[4] = test system: K-562; experiment: NCI-60 single-dose screen; type: cell-based; conditions: Homo sapiens, K562, single dose 10 µM, '-' = no inhibition, read-out: % Growth Inhibition
Outline: as §1

[5] = test system: LOX IMVI; experiment: NCI-60 single-dose screen; type: cell-based; conditions: Homo sapiens, single dose 10 µM, '-' = no inhibition, read-out: % Growth Inhibition
Outline: as §1

[6] = test system: MDA-MB231/ATCC; experiment: NCI-60 single-dose screen; type: cell-based; conditions: Homo sapiens, MDA-MB-231, single dose 10 µM, '-' = no inhibition, read-out: % Growth Inhibition
Outline: as §1

[7] = test system: NCI-H23; experiment: NCI-60 single-dose screen; type: cell-based; conditions: Homo sapiens, single dose 10 µM, '-' = no inhibition, read-out: % Growth Inhibition
Outline: as §1

[8] = test system: NCI-H322M; experiment: NCI-60 single-dose screen; type: cell-based; conditions: Homo sapiens, single dose 10 µM, '-' = no inhibition, read-out: % Growth Inhibition
Outline: as §1

[9] = test system: OVCAR-4; experiment: NCI-60 single-dose screen; type: cell-based; conditions: Homo sapiens, single dose 10 µM, '-' = no inhibition, read-out: % Growth Inhibition
Outline: as §1

[10] = test system: OVCAR-8; experiment: NCI-60 single-dose screen; type: cell-based; conditions: Homo sapiens, single dose 10 µM, '-' = no inhibition, read-out: % Growth Inhibition
Outline: as §1

[11] = test system: SR; experiment: NCI-60 single-dose screen; type: cell-based; conditions: Homo sapiens, single dose 10 µM, '-' = no inhibition, read-out: % Growth Inhibition
Outline: as §1

[12] = test system: A-549; experiment: Antiproliferative assay (MTT); type: cell-based; conditions: Homo sapiens, A549, A-549 (lung), read-out: Antiproliferative activity IC50 ± SEM, A-549
From the text: (§2) The MTT test was employed for this investigation ([Hisham et al., 2022]; [El-Sherief et al., 2019]; [Ramadan et al., 2020]). Table 2 presents the four cancer cell lines’ median inhibitory concentration (IC50) and GI50 (average IC50) values.
(§3) The MTT test was employed for this investigation ([Hisham et al., 2022]; [El-Sherief et al., 2019]; [Ramadan et al., 2020]). The IC50 values were derived from dose-response tests. The reported data are derived from at least two independent studies, each comprising three replicates per concentration. See Supplementary Material A1 for more details.
(§4) (in 0.1% DMSO) were added (in 200 μL medium to yield a final concentration of 0.1% v/v) to the wells of plates. A single compound was designated with four wells followed by incubation of plates for 96h at 37°C. After incubation, medium was removed completely from the plates followed by addition of MTT (0.4 mg/mL in medium) to each well and subsequent incubation of plates for 3h. MTT (along with the medium) was removed and DMSO (150μL) was added to each well of the culture plates, followed by vertexing and subsequent measurement of absorbance (at 540 nm) using microplate reader. The data are shown as percentage inhibition of proliferation in comparison with controls containing 0.1% DMSO.
(§5) 4.2.1.2. Assay for antiproliferative effect […]
(§6) (10%) and 1 µg/mL each of aprotinin, leupeptin and pepstatin for 120 min. The purification was performed either at 4 °C or on ice. To record autophosphorylation level, EGFR kinase assay was carried out on the basis of DELFIA/Time-Resolved Fluorometry. The compounds were first
(§7) (1 picture or pasted object on this page, not shown here)

[13] = test system: HT-29; experiment: Antiproliferative assay (MTT); type: cell-based; conditions: Homo sapiens, HT-29 (colon), read-out: Antiproliferative activity IC50 ± SEM, HT-29
From the text: as §2, §3, §4, §5, §6, §7

[14] = test system: MCF-7; experiment: Antiproliferative assay (MTT); type: cell-based; conditions: Homo sapiens, MCF7, MCF-7 (breast), read-out: Antiproliferative activity IC50 ± SEM, MCF-7
From the text: as §2, §3, §4, §5, §6, §7

[15] = test system: Panc-1; experiment: Antiproliferative assay (MTT); type: cell-based; conditions: Homo sapiens, Panc-1 (pancreatic), read-out: Antiproliferative activity IC50 ± SEM, Panc-1
From the text: as §2, §3, §4, §5, §6, §7

[16] = test system: four cancer cell lines (A-549, MCF-7, Panc-1, HT-29); experiment: Antiproliferative assay, average over four cancer cell lines; type: cell-based; conditions: Homo sapiens; average of the four cancer cell lines; read-out: Average IC50 (GI50)
From the text: Table 2 presents the four cancer cell lines’ median inhibitory concentration (IC50) and GI50 (average IC50) values.
The IC50 values were derived from dose-response tests. The reported data are derived from at least two independent studies, each comprising three replicates per concentration. See Supplementary Material A1 for more details.

SMILES	inhibition at 10 µM [1] [%]	inhibition at 10 µM [2] [%]	inhibition at 10 µM [3] [%]	inhibition at 10 µM [4] [%]	inhibition at 10 µM [5] [%]	inhibition at 10 µM [6] [%]	inhibition at 10 µM [7] [%]	inhibition at 10 µM [8] [%]	inhibition at 10 µM [9] [%]	inhibition at 10 µM [10] [%]	inhibition at 10 µM [11] [%]	IC50 [12] [nM]	IC50 [13] [nM]	IC50 [14] [nM]	IC50 [15] [nM]	IC50 [16] [nM]	melting point [°C]
COc1ccc(-c2cc(-c3ccc(Cl)cc3)nc(SCc3ccccc3)n2)cc1 [Compound 14, 2-(Benzylthio)-4-(4-chlorophenyl)-6-(4-methoxyphenyl)pyrimidine]	10.3	1.74	18.1	11.7	3.14	< 0	< 0	< 0	< 0	< 0	10.2	28 ± 2	28 ± 2	30 ± 2	29 ± 2	29	288 to 290
COc1ccc(CSc2nc(-c3ccc(Cl)cc3)cc(-c3ccc(OC)cc3)n2)cc1 [Compound 15, 2-(4-Methoxybenzylthio)-4-(4-chlorophenyl)-6-(4-methoxyphenyl)pyrimidine]	2.89	0.47	3.01	12.8	< 0	< 0	4.6	< 0	< 0	1.69	8.9	79 ± 7	80 ± 7	82 ± 7	80 ± 7	80	278 to 280
COc1ccc(-c2cc(-c3cccc(OC)c3)nc(SC)n2)cc1 [Compound 16, 6-(3-Methoxyphenyl)-4-(4-methoxyphenyl)-2-(methylthio)pyrimidine]	< 0	6.56	22.2	26.9	0.51	11	2.58	< 0	8.29	6.48	27.7	86 ± 7	85 ± 8	89 ± 8	85 ± 8	86	213 to 215
CCSc1nc(-c2ccc(OC)cc2)cc(-c2cccc(OC)c2)n1 [Compound 17, 2-(Ethylthio)-6-(3-methoxyphenyl)-4-(4-methoxyphenyl)pyrimidine]	< 0	< 0	18.6	9.37	5.7	6.41	< 0	< 0	3.36	< 0	18.4	28 ± 2	29 ± 2	30 ± 3	28 ± 2	29	221 to 222
CCCSc1nc(-c2ccc(OC)cc2)cc(-c2cccc(OC)c2)n1 [Compound 18, 6-(3-Methoxyphenyl)-4-(4-methoxyphenyl)-2-(propylthio)pyrimidine]	0.86	< 0	20.3	12.8	< 0	< 0	< 0	< 0	3.94	< 0	14.9	45 ± 4	46 ± 4	46 ± 4	44 ± 4	45	218 to 220
COc1ccc(-c2cc(-c3cccc(OC)c3)nc(SC(C)C)n2)cc1 [Compound 19, 2-(Isopropylthio)-6-(3-methoxyphenyl)-4-(4-methoxyphenyl)pyrimidine]	0.02	4.58	22.6	29.5	6.05	17.3	8.76	4.92	4.28	10.7	27.6	29 ± 2	30 ± 2	32 ± 3	30 ± 2	30	235 to 237
C=CCSc1nc(-c2ccc(OC)cc2)cc(-c2cccc(OC)c2)n1 [Compound 20, 2-(Allylthio)-6-(3-methoxyphenyl)-4-(4-methoxyphenyl)pyrimidine]	< 0	< 0	31.3	11.8	7.36	< 0	1.43	< 0	5.65	0.92	13	70 ± 6	72 ± 4	73 ± 6	70 ± 6	71	258 to 260
COc1ccc(-c2cc(-c3ccc(Cl)cc3)nc(SC)n2)cc1OC [Compound 23, 4-(4-Chlorophenyl)-6-(3,4-dimethoxyphenyl)-2-(methylthio)pyrimidine]	8.14	9.83	18.4	39	15	23.2	7.41	< 0	27.5	3.78	34	48 ± 4	48 ± 4	50 ± 4	47 ± 4	48	228 to 229
CCSc1nc(-c2ccc(Cl)cc2)cc(-c2ccc(OC)c(OC)c2)n1 [Compound 24, 4-(4-Chlorophenyl)-2-(ethylthio)-6-(3,4-dimethoxyphenyl)pyrimidine]	35.4	7.4	22.8	41.5	11.9	16.9	1.67	13.8	26.4	6.83	39.6	30 ± 3	31 ± 3	33 ± 3	30 ± 3	31	229 to 231
CCCSc1nc(-c2ccc(Cl)cc2)cc(-c2ccc(OC)c(OC)c2)n1 [Compound 25, 4-(4-Chlorophenyl)-6-(3,4-dimethoxyphenyl)-2-(propylthio)pyrimidine]	31.7	17.6	15.5	27.1	1.51	16.2	2.74	4.54	20.2	6.34	24.9	32 ± 3	32 ± 3	34 ± 3	32 ± 3	33	217 to 219
